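In this assay, cells in 96-well plates receive the compound at five concentrations for 48 hours. Endpoints are linearly interpolated between the surrounding concentrations. The concentration for 50% growth inhibition is given as GI50.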 Activity calls are given as the source filed them. Cut-off read from the data, not from the text of the source: active = GI50 up to about 1.1 µM and inactive = higher.
Columns and labels:
Assay in all cases: NCI anticancer screen, dose series, 48 h
[1] = system: KM12
[2] = system: HCT-15
[3] = system: EKVX
[4] = system: OVCAR-8
[5] = system: NCI-H460
[6] = system: OVCAR-4
[7] = system: DU-145
[8] = system: HT-29
[9] = system: SK-MEL-5
[10] = system: SNB-19
[11] = system: 786-0
[12] = system: Hs-578T
[13] = system: UACC-257
[14] = system: MDA-N
[15] = system: Malme-3M
[16] = system: MOLT-4
[17] = system: SW-620
[18] = system: HL-60
[19] = system: HOP-62

Structure (SMILES) | GI50 [1] | GI50 [2] | GI50 [3] | GI50 [4] | GI50 [5] | GI50 [6] | GI50 [7] | GI50 [8] | GI50 [9] | GI50 [10] | GI50 [11] | GI50 [12] | GI50 [13] | GI50 [14] | GI50 [15] | GI50 [16] | GI50 [17] | GI50 [18] | GI50 [19]
COc1ccc(CC/N=C2\OCc3ccccc32)cc1OC | 31.5 µM (inactive) | 38.8 µM | 76.2 µM (inactive) | 91.8 µM (inactive) | 45.5 µM (inactive) | 59 µM (inactive) | 32.4 µM (inactive) | 32.1 µM (inactive) | 43.3 µM (inactive) | > 100 µM (inactive) | 45.3 µM (inactive) | 67 µM (inactive) | > 100 µM (inactive) | 38.8 µM (inactive) | 56.8 µM (inactive) | 50.4 µM (inactive) | 54.5 µM (inactive) | 5.42 µM (inactive) | 
CCC(=O)Nc1ccc(NC(C#N)c2cccc(Oc3ccccc3)c2)cc1 (configuration not stated) | 58.6 µM (inactive) | 45 µM | 67.6 µM (inactive) | 26.2 µM (inactive) |  | 54.1 µM (inactive) | 48.3 µM (inactive) | 33.8 µM (inactive) | 22.6 µM (inactive) | > 100 µM (inactive) | 35.5 µM (inactive) | 67.3 µM (inactive) |  | 34.4 µM (inactive) | 26.1 µM (inactive) | 4.29 µM (inactive) | 38.7 µM (inactive) | 13.5 µM (inactive) | 49.7 µM (inactive)
Cn1c(=O)n2c(=O)n(C)c(=O)n2c1=O | > 100 µM (inactive) | > 100 µM | > 100 µM (inactive) | > 100 µM (inactive) | > 100 µM (inactive) | > 100 µM (inactive) | > 100 µM (inactive) | > 100 µM (inactive) | > 100 µM (inactive) | > 100 µM (inactive) | > 100 µM (inactive) | > 100 µM (inactive) | > 100 µM (inactive) | > 100 µM (inactive) | > 100 µM (inactive) | > 100 µM (inactive) | > 100 µM (inactive) | > 100 µM (inactive) | 
N/C(COc1ccc(Cl)cc1)=N\NC(=O)c1ccncc1 | > 100 µM (inactive) | 55.6 µM | 76.2 µM (inactive) | > 100 µM (inactive) | 63.5 µM (inactive) | > 100 µM (inactive) | > 100 µM (inactive) | > 100 µM (inactive) |  | > 100 µM (inactive) | 54.3 µM (inactive) | > 100 µM (inactive) | 72.4 µM (inactive) | > 100 µM (inactive) | > 100 µM (inactive) | > 100 µM (inactive) | > 100 µM (inactive) | > 100 µM (inactive) | > 100 µM (inactive)
NCCNc1ncnc2ccc(Cl)cc12 | > 100 µM (inactive) | > 100 µM | > 100 µM (inactive) | 74.1 µM (inactive) | 32.8 µM (inactive) | > 100 µM (inactive) | > 100 µM (inactive) | 66.8 µM (inactive) | > 100 µM (inactive) | > 100 µM (inactive) | > 100 µM (inactive) | > 100 µM (inactive) | 36 µM (inactive) | 99.1 µM (inactive) | > 100 µM (inactive) |  | 72.3 µM (inactive) | > 100 µM (inactive) | > 100 µM (inactive)
CC1CC(OP(=O)(OCc2ccccc2)OCc2ccccc2)[C@@H](OCc2ccccc2)C(OCc2ccccc2)C1OCc1ccccc1 (some centres not stated) |  | > 100 µM | 34.1 µM (inactive) | > 100 µM (inactive) | 34.3 µM (inactive) | > 100 µM (inactive) | > 100 µM (inactive) | 67.9 µM (inactive) | 62.5 µM (inactive) | 46.8 µM (inactive) | > 100 µM (inactive) | 79.8 µM (inactive) | 76.6 µM (inactive) | > 100 µM (inactive) | 57.5 µM (inactive) | 11.6 µM (inactive) | > 100 µM (inactive) | 28.5 µM (inactive) | > 100 µM (inactive)
CSc1nc(SC)c2c(C)c(Br)[nH]c2n1 | > 100 µM (inactive) | > 100 µM | 70.5 µM (inactive) | > 100 µM (inactive) | > 100 µM (inactive) | > 100 µM (inactive) | > 100 µM (inactive) | > 100 µM (inactive) | > 100 µM (inactive) | > 100 µM (inactive) | > 100 µM (inactive) | > 100 µM (inactive) |  | > 100 µM (inactive) | > 100 µM (inactive) | > 100 µM (inactive) | > 100 µM (inactive) | > 100 µM (inactive) | > 100 µM (inactive)
CCOC(=O)NC(Nc1ccc(C(=O)OCC)cc1)(C(F)(F)F)C(F)(F)F | 78.9 µM (inactive) | 42.9 µM |  | > 100 µM (inactive) | 66.8 µM (inactive) | > 100 µM (inactive) | > 100 µM (inactive) | > 100 µM (inactive) | 65.2 µM (inactive) | 96.8 µM (inactive) | > 100 µM (inactive) | > 100 µM (inactive) |  | 49.8 µM (inactive) | > 100 µM (inactive) | 11.1 µM (inactive) | 61.4 µM (inactive) | > 100 µM (inactive) | > 100 µM (inactive)
